In assay [1] the test system is PDL-1 and/or PDL-2 signaling. The assay can be described thus: Luciferase assay of dipeptides, Table 1. Type of assay: cell-based.
Another assay deals with PD-1. The assay can be described thus: Binding affinity (KD) of dipeptides, Table 1.

Square brackets hold non-standard residues; d marks the D form. Peptide text beside a SMILES is read from it. * marks the point of attachment. dPhe(4-CH2NH2) = NCc1ccc(C[C@@H](N)C(=O)O)cc1; dOrn = NCCC[C@@H](N)C(=O)O; Orn = NCCC[C@H](N)C(=O)O; Ac5c = NC1(C(=O)O)CCCC1; PhAc = O=C(Cc1ccccc1)*; Ac3c = NC1(C(=O)O)CC1; Aib = CC(C)(N)C(=O)O

As for `CC(C)(NC(=O)[C@@H](CCCN)NC(=O)Cc1ccccc1)C(N)=O` [Compound 1, (R)-5-amino-N-(1-amino-2-methyl-1-oxopropan-2-yl)-2-(2-phenylacetamido)pentanamide] (PhAc-[dOrn]-[Aib]-NH2), the EC50 (in general, the concentration at which the effect is half-maximal) in assay [1] is 18 µM.
Same read-out and setting: the result for `CC(C)(NC(=O)[C@H](CCCN)NC(=O)Cc1ccccc1)C(N)=O` [Compound 2] (PhAc-[Orn]-[Aib]-NH2) reads 7.9 µM.
For `CC(C)(NC(=O)[C@@H](CCCN)NC(=O)Cc1ccc(C(F)(F)F)cc1)C(N)=O` [Compound 3], it took 0.01 µM to reach a half-maximal effect in assay [1] (EC50).
In assay [1], `CC(C)(NC(=O)[C@@H](CCCN)NC(=O)Cc1ccc(F)cc1)C(N)=O` [Compound 4] showed an EC50 of 0.47 µM.
On the same count and under the same terms, the figure for `COc1ccc(CC(=O)N[C@H](CCCN)C(=O)NC(C)(C)C(N)=O)cc1` [Compound 5] is 0.32 µM.
On to `CC(C)(NC(=O)[C@@H](CCCN)NC(=O)Cc1ccc(OC(F)(F)F)cc1)C(N)=O` [Compound 6], for which, in assay [1], a half-maximal effect (EC50) was put at 0.09 µM.
The compound `NCCC[C@@H](NC(=O)Cc1ccccc1)C(=O)NC1(C(N)=O)CCCC1` [Compound 7] (PhAc-[dOrn]-[Ac5c]-NH2) displayed an EC50 in assay [1] of 0.28 µM.
For `CC(C)(NC(=O)[C@@H](CCCCN)NC(=O)Cc1ccccc1)C(N)=O` [Compound 8] (PhAc-[dK]-[Aib]-NH2), the EC50 in assay [1] stood at 1.37 µM.
`CC(C)(NC(=O)[C@@H](CCCN)NC(=O)Cc1ccccc1F)C(N)=O` [Compound 9] had an EC50 in assay [1] of 0.05 µM. This EC50 lies about 27-fold lower than the previous one.
For `Cc1ccc(CC(=O)N[C@H](CCCN)C(=O)NC(C)(C)C(N)=O)cc1` [Compound 10], the “EC50 (μM) Luciferase” value in assay [1] is reported as “Inactive”.
The compound `CC(C)(NC(=O)[C@@H](CCCN)NC(=O)Cc1cccc(F)c1)C(N)=O` [Compound 11] gave an EC50 in assay [1] of 1.28 µM.
As to `CC(C)(NC(=O)[C@@H](CCCN)NC(=O)C(C)(C)c1ccccc1)C(N)=O` [Compound 12], in assay [1], the “EC50 (μM) Luciferase” value is reported as “Inactive”.
In assay [1], `Cn1cc(C(=O)N[C@H](CCCN)C(=O)NC(C)(C)C(N)=O)c2ccccc21` [Compound 13] showed a concentration for a half-maximal effect (EC50) of 1.28 µM.
In turn, `NCCC[C@@H](NC(=O)Cc1ccccc1)C(=O)NC1(C(N)=O)CC1` [Compound 14] (PhAc-[dOrn]-[Ac3c]-NH2) returned an EC50 in assay [1] of 0.11 µM.
Consider `NCCC[C@@H](NC(=O)Cc1ccc(F)cc1)C(=O)NC1(C(N)=O)CC1` [Compound 15], for which, in assay [1], the EC50 came out at 3.32 µM.
With `CC(C)(NC(=O)[C@@H](CCCN)NC(=O)Cc1ccc(Cl)cc1)C(N)=O` [Compound 17], the KD entry on PD-1 is “No Binding”. In addition, the EC50 in assay [1] is 10.3 µM.
Compound `CC(C)(NC(=O)[C@@H](CCCN)NC(=O)C1(c2ccccc2)CC1)C(N)=O` [Compound 22] yielded an EC50 in assay [1] of 2.05 µM. In other words, the single-digit micromolar range.
For `CC(C)(NC(=O)[C@@H](Cc1ccc(CN)cc1)NC(=O)Cc1ccccc1)C(N)=O` [Compound 23] (PhAc-[dPhe(4-CH2NH2)]-[Aib]-NH2), the KD result at PD-1 is listed as “No Binding”. This compound also showed an EC50 in assay [1] of 17.7 µM.
Turning to `CC(C)(NC(=O)[C@@H](Cc1ccc(CN)cc1)NC(=O)Cc1ccc(F)cc1)C(N)=O` [Compound 24], the response in assay [1] was half-maximal at 0.714 µM (EC50).
Same read-out and setting: the result for `CC(C)(NC(=O)[C@@H](CCCN)NC(=O)C1(c2ccc(F)cc2)CC1)C(N)=O` [Compound 25] reads 5.03 µM.
Compound `CC(C)(NC(=O)[C@@H](CCCN)NC(=O)C(C)(C)c1ccc(F)cc1)C(N)=O` [Compound 26] registered an EC50 in assay [1] of 3.79 µM.
On the same count and under the same terms, the result for `CC(C)(NC(=O)[C@@H](CCCN)NC(=O)Cc1ccc(F)cc1Cl)C(N)=O` [Compound 27] reads 10.2 µM; that for `CC(C)(NC(=O)[C@@H](CCCN)NC(=O)Cc1ccc(F)c(F)c1)C(N)=O` [Compound 28], 2 µM; that for `CC(C)(NC(=O)[C@@H](CCCN)NC(=O)Cc1ccc(F)cc1F)C(N)=O` [Compound 29], 2.58 µM.
Compound `CC(C)(NC(=O)[C@@H](CCCN)NC(=O)Cc1cc(F)cc(F)c1)C(N)=O` [Compound 30] showed an EC50 in assay [1] of 2.1 µM.
`CC(C)(NC(=O)[C@@H](CCCN)NC(=O)Cc1c(F)cccc1F)C(N)=O` [Compound 31] yielded an EC50 in assay [1] of 0.596 µM.
Regarding `CC(C)(NC(=O)[C@@H](CCCN)NC(=O)Cc1cc(F)c(F)c(F)c1)C(N)=O` [Compound 32], at PD-1, the KD result is reported as “No Binding”. For the same compound, in assay [1], the EC50 came to 28.3 µM.
On to `CC(C)(NC(=O)[C@@H](CCCN)NC(=O)Cc1c(F)cc(F)cc1F)C(N)=O` [Compound 33], for which a half-maximal response in assay [1] (EC50) required 0.06 µM.
`CC(C)(NC(=O)[C@@H](CCCN)NC(=O)Cc1ccncc1)C(N)=O` [Compound 34] gave an EC50 in assay [1] of 3.48 µM.
In turn, `Cc1c[nH]c(=O)c(NC(=O)[C@@H](CCCN)NC(=O)Cc2ccc(F)cc2)c1` [Compound 35] returned a 50% effective concentration (EC50) in assay [1] of 0.59 µM.
Take `Cc1c[nH]c(=O)c(NC(=O)[C@@H](CCCN)NC(=O)Cc2ccccc2)c1` [Compound 36]: on PD-1, the KD result was “No Binding”. In assay [1], this compound gave an EC50 of 1.69 µM.
Consider `CN(C)CCC[C@@H](NC(=O)Cc1ccc(F)cc1)C(=O)NC(C)(C)C(N)=O` [Compound 37], for which, in assay [1], the EC50 came out at 23.8 µM.
On the same count and under the same terms, the figure for `CC(C)(NC(=O)[C@@H](CCCN)NC(=O)Cc1nc2ccccc2o1)C(N)=O` [Compound 38] is 19.2 µM; for `CCCC[C@@H](NC(=O)Cc1ccc(F)cc1)C(=O)NC(C)(C)C(N)=O` [Compound 39] it is 10.3 µM.
In assay [1], `CC(C)(NC(=O)[C@@H](CCCN)NC(=O)Cc1nc2ccccc2s1)C(N)=O` [Compound 40] displayed an EC50 of 0.07 µM.
Still for that read-out and setting: the figure for `CC(C)(NC(=O)[C@H](CCCN)NC(=O)Cc1ccc(C(F)(F)F)cc1)C(N)=O` [Compound 42] is 12.1 µM.

The values are drawn from patent publication US12098216B2, “Modulators of programmed death-ligand-1 and/or programmed death-ligand-2” (Southern Research Institute, priority 2020, dated 2024).
